Results: US4156724A, “N-acylamino-alpha-arylacetamido cephalosporins and antibacterial compositions and methods containing them” (Sumitomo Chemical Company, Limited, priority 1974, dated 1979)
Values after ≈ are worked out from the molar mass of the structure shown.

What was measured:
Assay type in all cases: cell-based
Proteus vulgaris HX 19 = assay: Minimum Inhibitory Concentration, Proteus vulgaris HX 19; details: HX19; Proteus vulgaris HX 19; read-out: Minimum Inhibitory Concentration
Description: (§1) anti-microbial activity tests were carried out on the compounds obtained in the Examples.

[1] = tested on: Klebsiella pneumoniae 602; assay: Minimum Inhibitory Concentration, Klebsiella pneumoniae 602; details: Klebsiella pneumoniae, 602, Klebsiella pneumoniae 602; read-out: Minimum Inhibitory Concentration
Description: as §1

Escherichia coli NIHJ = assay: Minimum Inhibitory Concentration, Escherichia coli NIHJ; details: Escherichia coli NIHJ; read-out: Minimum Inhibitory Concentration
Description: as §1

[2] = tested on: Pseudomonas aeruginosa 104; assay: Minimum Inhibitory Concentration, Pseudomonas aeruginosa 104; details: Pseudomonas aeruginosa 104; read-out: Minimum Inhibitory Concentration
Description: as §1

[3] = tested on: Staphylococcus aureus FS 289; assay: Minimum Inhibitory Concentration, Staphylococcus aureus FS 289; details: FS289; Staphylococcus aureus FS 289, strain resistant to penicillin; read-out: Minimum Inhibitory Concentration
Description: as §1
*Staphylococcus aureus FS 289: strain resistant to penicillin

[4] = tested on: Enterobacter aerogeneus No. 75; assay: Minimum Inhibitory Concentration, Enterobacter aerogeneus No. 75; details: Enterobacter aerogeneus No. 75; read-out: Minimum Inhibitory Concentration
Description: as §1

Serratia No. 72 = assay: Minimum Inhibitory Concentration, Serratia No. 72
Description: as §1

[5] = tested on: Staphylococcus aureus 209 P; assay: Minimum Inhibitory Concentration, Staphylococcus aureus 209 P; details: Staphylococcus aureus 209 P; read-out: Minimum Inhibitory Concentration
Description: as §1

Row | SMILES | MIC (Proteus vulgaris HX 19) [µg/mL] | MIC [1] [µg/mL] | MIC (Escherichia coli NIHJ) [µg/mL] | MIC [2] [µg/mL] | MIC [3] [µg/mL] | MIC [4] [µg/mL] | MIC (Serratia No. 72) [µg/mL] | MIC [5] [µg/mL]
1 | CSc1ccc2ncc(C(=O)N[C@@H](C(=O)N[C@@H]3C(=O)N4C(C(=O)O)=C(COC(C)=O)CS[C@H]34)c3cccc(NC(N)=O)c3)c(O)c2n1 [Example 34] | 0.78 (≈ 1.14 µM) | 3.13 (≈ 4.59 µM) | 3.13 (≈ 4.59 µM) | 6.25 (≈ 9.17 µM) | 6.25 (≈ 9.17 µM) | 12.5 (≈ 18.3 µM) | 50 (≈ 73.3 µM) | 0.78 (≈ 1.14 µM)
2 | CC(=O)OCC1=C(C(=O)O)N2C(=O)[C@@H](NC(=O)[C@H](NC(=O)c3cnc4nc(C)c(C)nc4c3O)c3ccc(NC(N)=O)cc3)[C@H]2SC1 [Example 35] | 0.39 (≈ 0.587 µM) | 3.13 (≈ 4.71 µM) | 6.25 (≈ 9.4 µM) | 6.25 (≈ 9.4 µM) | 6.25 (≈ 9.4 µM) | 25 (≈ 37.6 µM) | 50 (≈ 75.2 µM) | 1.56 (≈ 2.35 µM)
3 | NC(=O)Nc1cccc([C@@H](NC(=O)c2cnc3cccnc3c2O)C(=O)N[C@@H]2C(=O)N3C(C(=O)O)=C(CSc4nnc(CO)s4)CS[C@H]23)c1 [Example 36] | 0.2 (≈ 0.276 µM) | 1.56 (≈ 2.16 µM) | 3.13 (≈ 4.32 µM) | 3.13 (≈ 4.32 µM) | 6.25 (≈ 8.64 µM) | 6.25 (≈ 8.64 µM) | 12.5 (≈ 17.3 µM) | 0.78 (≈ 1.08 µM)
4 | NC(=O)Nc1cccc([C@@H](NC(=O)c2cnc3cccnc3c2O)C(=O)N[C@@H]2C(=O)N3C(C(=O)O)=C(CSc4ccc(O)nn4)CS[C@H]23)c1 [Example 37] | 0.2 (≈ 0.284 µM) | 1.56 (≈ 2.22 µM) | 1.56 (≈ 2.22 µM) | 3.13 (≈ 4.45 µM) | 6.25 (≈ 8.88 µM) | 6.25 (≈ 8.88 µM) | 12.5 (≈ 17.8 µM) | 0.78 (≈ 1.11 µM)
5 | Cn1nnnc1SCC1=C(C(=O)O)N2C(=O)[C@@H](NC(=O)[C@H](NC(=O)c3cnc4cccnc4c3O)c3cccc(NC(N)=O)c3)[C@H]2SC1 [Example 38] | 0.1 (≈ 0.145 µM) | 1.56 (≈ 2.26 µM) | 1.56 (≈ 2.26 µM) | 3.13 (≈ 4.53 µM) | 6.25 (≈ 9.04 µM) | 3.13 (≈ 4.53 µM) | 12.5 (≈ 18.1 µM) | 0.78 (≈ 1.13 µM)
6 | COc1ccc2ncc(C(=O)N[C@@H](C(=O)N[C@@H]3C(=O)N4C(C(=O)O)=C(CSc5nnnn5C)CS[C@H]34)c3cccc(NC(N)=O)c3)c(O)c2n1 [Example 39] | 0.1 (≈ 0.139 µM) | 1.56 (≈ 2.16 µM) | 1.56 (≈ 2.16 µM) | 3.13 (≈ 4.34 µM) | 6.25 (≈ 8.66 µM) | 3.13 (≈ 4.34 µM) | 12.5 (≈ 17.3 µM) | 0.78 (≈ 1.08 µM)
7 | CSc1ccc2ncc(C(=O)N[C@@H](C(=O)N[C@@H]3C(=O)N4C(C(=O)O)=C(CSc5nnc(C)s5)CS[C@H]34)c3cccc(NC(N)=O)c3)c(O)c2n1 [Example 40] | 0.1 (≈ 0.133 µM) | 1.56 (≈ 2.07 µM) | 3.13 (≈ 4.15 µM) | 3.13 (≈ 4.15 µM) | 6.25 (≈ 8.29 µM) | 6.25 (≈ 8.29 µM) | 12.5 (≈ 16.6 µM) | 0.78 (≈ 1.03 µM)
8 | CSc1cnc2c(O)c(C(=O)NC(C(=O)NC3C(=O)N4C(C(=O)O)=C(CSc5nnnn5C)CSC34)c3cccc(NC(N)=O)c3)cnc2n1 (centres unmarked) [Example 41] | 0.2 (≈ 0.271 µM) | 3.13 (≈ 4.24 µM) | 3.13 (≈ 4.24 µM) | 6.25 (≈ 8.46 µM) | 6.25 (≈ 8.46 µM) | 6.25 (≈ 8.46 µM) | 12.5 (≈ 16.9 µM) | 1.56 (≈ 2.11 µM)
9 | Cc1nc2ncc(C(=O)NC(C(=O)NC3C(=O)N4C(C(=O)O)=C(CSc5nnnn5C)CSC34)c3cccc(NC(N)=O)c3)c(O)c2nc1C (centres unmarked) [Example 42] | 0.2 (≈ 0.277 µM) | 3.13 (≈ 4.34 µM) | 3.13 (≈ 4.34 µM) | 6.25 (≈ 8.67 µM) | 6.25 (≈ 8.67 µM) | 6.25 (≈ 8.67 µM) | 12.5 (≈ 17.3 µM) | 1.56 (≈ 2.16 µM)
10 | Cn1nnnc1SCC1=C(C(=O)O)N2C(=O)C(NC(=O)C(NC(=O)c3cnc4sccc4c3O)c3cccc(NC(N)=O)c3)C2SC1 (centres unmarked) [Example 43] | 0.39 (≈ 0.56 µM) | 3.13 (≈ 4.49 µM) | 6.25 (≈ 8.97 µM) | 6.25 (≈ 8.97 µM) | 6.25 (≈ 8.97 µM) | 6.25 (≈ 8.97 µM) | 12.5 (≈ 17.9 µM) | 0.78 (≈ 1.12 µM)
11 | Cn1nnnc1SCC1=C(C(=O)O)N2C(=O)C(NC(=O)C(NC(=O)c3cnc4scnc4c3O)c3cccc(NC(N)=O)c3)C2SC1 (centres unmarked) [Example 44] | 0.39 (≈ 0.559 µM) | 3.13 (≈ 4.49 µM) | 6.25 (≈ 8.96 µM) | 6.25 (≈ 8.96 µM) | 6.25 (≈ 8.96 µM) | 6.25 (≈ 8.96 µM) | 12.5 (≈ 17.9 µM) | 0.78 (≈ 1.12 µM)
12 | NC(=O)Nc1cccc(C(NC(=O)c2cnccc2O)C(=O)NC2C(=O)N3C(C(=O)O)=C(CSc4nnc(CO)s4)CSC23)c1 (centres unmarked) [Example 45] | 0.39 (≈ 0.58 µM) | 3.13 (≈ 4.65 µM) | 12.5 (≈ 18.6 µM) | 12.5 (≈ 18.6 µM) | 6.25 (≈ 9.29 µM) | 12.5 (≈ 18.6 µM) | 50 (≈ 74.3 µM) | 0.39 (≈ 0.58 µM)
13 | NC(=O)Nc1cccc(C(NC(=O)c2cnccc2O)C(=O)NC2C(=O)N3C(C(=O)O)=C(CSc4ccc(O)nn4)CSC23)c1 (centres unmarked) [Example 46] | 0.39 (≈ 0.598 µM) | 3.13 (≈ 4.8 µM) | 12.5 (≈ 19.2 µM) | 12.5 (≈ 19.2 µM) | 6.25 (≈ 9.58 µM) | 12.5 (≈ 19.2 µM) | 50 (≈ 76.6 µM) | 0.78 (≈ 1.2 µM)
14 | NC(=O)Nc1ccc(C(NC(=O)c2cnccc2O)C(=O)NC2C(=O)N3C(C(=O)O)=C(CSc4nnc(CO)s4)CSC23)cc1 (centres unmarked) [Example 47] | 0.39 (≈ 0.58 µM) | 3.13 (≈ 4.65 µM) | 12.5 (≈ 18.6 µM) | 12.5 (≈ 18.6 µM) | 6.25 (≈ 9.29 µM) | 12.5 (≈ 18.6 µM) | 50 (≈ 74.3 µM) | 0.78 (≈ 1.16 µM)
15 | NC(=O)Nc1cccc(C(NC(=O)c2ccnnc2O)C(=O)NC2C(=O)N3C(C(=O)O)=C(CSc4nnc(CO)s4)CSC23)c1 (centres unmarked) [Example 48] | 0.78 (≈ 1.16 µM) | 3.13 (≈ 4.65 µM) | 12.5 (≈ 18.6 µM) | 25 (≈ 37.1 µM) | 12.5 (≈ 18.6 µM) | 25 (≈ 37.1 µM) | 100 (≈ 148 µM) | 0.78 (≈ 1.16 µM)
16 | NC(=O)Nc1cccc(C(NC(=O)c2cccnc2O)C(=O)NC2C(=O)N3C(C(=O)O)=C(CSc4nnc(CO)s4)CSC23)c1 (centres unmarked) [Example 49] | 0.78 (≈ 1.16 µM) | 6.25 (≈ 9.29 µM) | 12.5 (≈ 18.6 µM) | 25 (≈ 37.2 µM) | 12.5 (≈ 18.6 µM) | 25 (≈ 37.2 µM) | 50 (≈ 74.3 µM) | 0.78 (≈ 1.16 µM)
17 | CC(=O)OCC1=C(C(=O)O)N2C(=O)C(NC(=O)[C@H](NC(=O)c3cnc4cccnc4c3O)c3ccc(N)cc3)C2SC1 (stereo partly drawn) [Example 50, 7-[D-α-(4-Hydroxy-1,5-naphthyridine-3-carboxyamido)-α-p-aminophenylacetamido]cephalosporanic Acid] | 0.39 (≈ 0.658 µM) | 3.13 (≈ 5.28 µM) | 3.13 (≈ 5.28 µM) | 6.25 (≈ 10.5 µM) | 6.25 (≈ 10.5 µM) | 6.25 (≈ 10.5 µM) | 50 (≈ 84.4 µM) | 1.56 (≈ 2.63 µM)
18 | CC(=O)OCC1=C(C(=O)O)N2C(=O)C(NC(=O)[C@H](NC(=O)c3cnccc3O)c3cccc(N)c3)C2SC1 (stereo partly drawn) [Example 51, 7-[D-α-(4-Hydroxypyridine-3-carbonamide)-α -m-aminophenylacetamido]cephalosporanic acid] | 0.2 (≈ 0.369 µM) | 12.5 (≈ 23.1 µM) | 12.5 (≈ 23.1 µM) | 6.25 (≈ 11.5 µM) | 3.13 (≈ 5.78 µM) | 25 (≈ 46.2 µM) | > 200 | 0.39 (≈ 0.72 µM)
19 | Cc1nnc(SCC2=C(C(=O)O)N3C(=O)C(NC(=O)[C@H](NC(=O)c4cnc5cccnc5c4O)c4ccc(N)cc4)C3SC2)s1 (stereo partly drawn) [Example 52, 7-[D-α-(4-Hydroxy-1,5-naphthyridine-3-carbonamido)-α-p-aminophenylacetamido]-3-(2-methyl-1,3,4-thiadiazol-5yl)thiomethyl-3-cephem-4-carboxylic acid] | 0.1 (≈ 0.15 µM) | 3.13 (≈ 4.71 µM) | 1.56 (≈ 2.35 µM) | 6.25 (≈ 9.4 µM) | 6.25 (≈ 9.4 µM) | 3.13 (≈ 4.71 µM) | 12.5 (≈ 18.8 µM) | 1.56 (≈ 2.35 µM)
